Data from US10752624B2, “Kinase inhibitors” (Origenis GmbH, priority 2012, dated 2020).
One block for each molecule: values may come before it.

Assays:
SYK kinase = molecular target: T1, SYK kinase (Homo sapiens, UniProt P43405); experiment: SYK Assay (OMNIA Kinase Assay, SOX peptide fluorescence); assay type: biochemical; conditions: 1 mM ATP, 10 μM Omnia Peptide Substrate Tyr 7, 30° C., readings for 30 minutes; read-out: SYK Activities: IC50
T1 construct: purchased Invitrogen, Carlsbad
Protocol: In the assay OMNIA® KINASE ASSAY by Invitrogen Corporation (Carlsbad) the effect of invention of a compound on the phosphorylation is determined by measurement of fluorescence intensity of a chelation-enhanced fluorophore called SOX. Upon phosphorylation of the peptide by the kinase of interest, Mg2+ is chelated to form a bridge between the SOX moiety and the phosphate group that is transferred to the specific tyrosine on the peptide. The fluorescence intensity is directly proportional to the amount of peptide phosphorylation.
To the wells of an 384 well small volume plate (Greiner, Frickenhausen) are added (i) the compound under test in 5% DMSO/distilled water (2 μl), (ii) 16 μl of the master mix containing ATP, DTT, Kinase Reaction Buffer, Omina Peptide Substrate Tyr 7 resulting in a final concentration of 1 mM ATP, 0.2 mM DTT and 10 μM Peptide Substrate.
The Master Mix and the assay plate was incubated to reaction temperature before the measurement (30° C.). The reaction was started with addition of (iii) 2 μl 4 μg/ml SYK kinase (Invitrogen, Carlsbad). During measurement fluorescence intensity readings were collected using a TECAN M1000 at a wavelength of λex 360/λem 485 nm every 30 s for 30 minutes. The reaction velocity was plotted versus the inhibitor concentration to determine the IC50 using XLFit 5.0 (IDBS, Guildford) to fit to a sigmoidal dose response curve.

LRRK2 = LRRK2 (Homo sapiens, UniProt Q5S007); experiment: LRRK2-LRRK2 G2019S-Assay (LanthaScreen Eu Kinase Binding Assay); conditions: 5 nM LRRK2, 10 nM tracer 236, 2 nM EU-Anti-GST antibody, 1 h at RT; read-out: LRRK2 Activities: IC50
Sequence of LRRK2 (Q5S007 970-2527 limits assumed): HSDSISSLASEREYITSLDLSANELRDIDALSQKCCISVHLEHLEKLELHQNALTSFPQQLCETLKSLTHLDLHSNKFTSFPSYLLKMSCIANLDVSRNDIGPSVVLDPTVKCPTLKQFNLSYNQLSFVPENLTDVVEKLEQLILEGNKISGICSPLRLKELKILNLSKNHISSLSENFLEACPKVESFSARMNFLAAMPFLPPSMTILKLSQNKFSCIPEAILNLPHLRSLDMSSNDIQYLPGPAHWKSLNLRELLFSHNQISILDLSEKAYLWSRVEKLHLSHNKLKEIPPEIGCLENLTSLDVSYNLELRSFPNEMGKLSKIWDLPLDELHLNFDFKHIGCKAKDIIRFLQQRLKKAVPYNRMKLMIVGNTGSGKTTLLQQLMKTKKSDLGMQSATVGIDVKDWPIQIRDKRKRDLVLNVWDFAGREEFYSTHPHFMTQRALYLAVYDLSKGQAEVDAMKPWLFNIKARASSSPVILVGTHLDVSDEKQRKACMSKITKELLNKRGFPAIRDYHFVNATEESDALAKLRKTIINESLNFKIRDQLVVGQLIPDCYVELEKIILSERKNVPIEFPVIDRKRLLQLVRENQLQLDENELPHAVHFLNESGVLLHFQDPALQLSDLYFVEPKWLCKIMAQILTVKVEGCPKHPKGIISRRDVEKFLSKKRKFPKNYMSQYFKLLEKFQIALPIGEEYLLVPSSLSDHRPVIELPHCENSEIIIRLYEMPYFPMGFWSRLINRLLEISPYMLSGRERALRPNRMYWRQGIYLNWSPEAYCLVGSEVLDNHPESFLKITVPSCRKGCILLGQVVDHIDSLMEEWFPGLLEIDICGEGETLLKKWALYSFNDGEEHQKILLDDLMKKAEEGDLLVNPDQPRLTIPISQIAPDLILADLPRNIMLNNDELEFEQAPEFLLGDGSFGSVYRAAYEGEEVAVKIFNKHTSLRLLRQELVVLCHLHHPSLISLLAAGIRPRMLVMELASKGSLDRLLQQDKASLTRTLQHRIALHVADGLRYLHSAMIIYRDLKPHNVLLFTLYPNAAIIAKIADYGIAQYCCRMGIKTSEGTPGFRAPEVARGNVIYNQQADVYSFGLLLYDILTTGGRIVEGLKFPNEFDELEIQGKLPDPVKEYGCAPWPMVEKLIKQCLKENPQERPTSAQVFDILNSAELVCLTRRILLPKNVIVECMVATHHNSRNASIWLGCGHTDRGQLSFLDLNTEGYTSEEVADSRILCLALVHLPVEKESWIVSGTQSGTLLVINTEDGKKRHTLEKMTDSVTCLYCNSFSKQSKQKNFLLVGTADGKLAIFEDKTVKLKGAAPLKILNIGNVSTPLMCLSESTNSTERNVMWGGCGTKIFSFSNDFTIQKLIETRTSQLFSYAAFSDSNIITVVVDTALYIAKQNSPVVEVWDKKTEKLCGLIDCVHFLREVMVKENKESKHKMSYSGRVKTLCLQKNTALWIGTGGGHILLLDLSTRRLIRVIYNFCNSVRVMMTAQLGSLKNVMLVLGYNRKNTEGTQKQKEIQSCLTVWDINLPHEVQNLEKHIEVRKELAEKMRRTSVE
How it was run: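 In a TR-FRET tracer displacement assay, LRRK2 or its mutants at 5 nM were mixed with 2 nM Eu-anti-GST antibody and 10 nM tracer 236 in kinase buffer A for 1 h at RT. The 665/615 nm emission ratio was plotted against inhibitor concentration, and IC50 came from a variable-slope sigmoidal fit.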

SMILES: COCCCn1cc(Nc2nc3cccc(OC)c3c3cn[nH]c23)cn1 [Example 183, 9-methoxy-N-(1-(3-methoxypropyl)-1H-pyrazol-4-yl)-3H-pyrazolo[3,4-c]quinolin-4-amine]
IC50 (SYK kinase): 100 to 1000 nM | IC50 (LRRK2): < 10 nM

SMILES: CC(C)(C)n1cc(Nc2nc3cc(S(C)(=O)=O)ccc3c3cn[nH]c23)cn1 [Example 188, N-(1-(tert-butyl)-1H-pyrazol-4-yl)-7-(methylsulfonyl)-3H-pyrazolo[3,4-c]quinolin-4-amine]
IC50 (SYK kinase): 100 to 1000 nM | IC50 (LRRK2): 10 to 100 nM

SMILES: COCCCn1cc(Nc2nc3cc(S(C)(=O)=O)ccc3c3cn[nH]c23)cn1 [Example 190, N-(1-(3-methoxypropyl)-1H-pyrazol-4-yl)-7-(methylsulfonyl)-3H-pyrazolo[3,4-c]quinolin-4-amine]
IC50 (SYK kinase): 10 to 100 nM | IC50 (LRRK2): 10 to 100 nM

SMILES: CC(C)(C#N)n1cc(Nc2nc3cc(S(C)(=O)=O)ccc3c3cn[nH]c23)cn1 [Example 191, 2-methyl-2-(4-((7-(methylsulfonyl)-3H-pyrazolo[3,4-c]quinolin-4-yl)amino)-1H-pyrazol-1-yl)propanenitrile]
IC50 (SYK kinase): 100 to 1000 nM | IC50 (LRRK2): 10 to 100 nM

SMILES: CC(C)Cn1cc(Nc2nc3cc(S(C)(=O)=O)ccc3c3cn[nH]c23)cn1 [Example 192, N-(1-isobutyl-1H-pyrazol-4-yl)-7-(methylsulfonyl)-3H-pyrazolo[3,4-c]quinolin-4-amine]
IC50 (SYK kinase): 10 to 100 nM | IC50 (LRRK2): 10 to 100 nM

SMILES: CS(=O)(=O)c1ccc2c(c1)nc(Nc1cnn(CCO)c1)c1[nH]ncc12 [Example 193, 2-(4-((7-(methylsulfonyl)-3H-pyrazolo[3,4-c]quinolin-4-yl)amino)-1H-pyrazol-1-yl)ethan-1-ol]
IC50 (SYK kinase): 10 to 100 nM | IC50 (LRRK2): < 10 nM

SMILES: CC(C)(C)n1cc(Nc2nc3ccc(S(C)(=O)=O)cc3c3cn[nH]c23)cn1 [Example 195, N-(1-(tert-butyl)-1H-pyrazol-4-yl)-8-(methylsulfonyl)-3H-pyrazolo[3,4-c]quinolin-4-amine]
IC50 (SYK kinase): 10 to 100 nM | IC50 (LRRK2): < 10 nM

SMILES: COc1cc(C(=O)N2CCOCC2)ccc1Nc1nc2ccc(S(C)(=O)=O)cc2c2cn[nH]c12 [Example 196, (3-methoxy-4-((8-(methylsulfonyl)-3H-pyrazolo[3,4-c]quinolin-4-yl)amino)phenyl)(morpholino)methanone]
IC50 (SYK kinase): 100 to 1000 nM | IC50 (LRRK2): 10 to 100 nM

SMILES: CS(=O)(=O)c1ccc2c(c1)nc(Nc1cnn(C3CC3)c1)c1[nH]ncc12 [Example 197, N-(1-cyclopropyl-1H-pyrazol-4-yl)-7-(methylsulfonyl)-3H-pyrazolo[3,4-c]quinolin-4-amine]
IC50 (SYK kinase): 10 to 100 nM | IC50 (LRRK2): 10 to 100 nM

SMILES: COc1cccc2nc(Nc3cnn(CC(C)C)c3)c3[nH]ncc3c12 [Example 198, N-(1-isobutyl-1H-pyrazol-4-yl)-9-methoxy-3H-pyrazolo[3,4-c]quinolin-4-amine]
IC50 (SYK kinase): 100 to 1000 nM | IC50 (LRRK2): < 10 nM

SMILES: COc1cccc2nc(Nc3cnn(CCO)c3)c3[nH]ncc3c12 [Example 199, 2-(4-((9-methoxy-3H-pyrazolo[3,4-c]quinolin-4-yl)amino)-1H-pyrazol-1-yl)ethan-1-ol]
IC50 (SYK kinase): 100 to 1000 nM | IC50 (LRRK2): < 10 nM

SMILES: COc1cccc2nc(Nc3cnn(C4CC4)c3)c3[nH]ncc3c12 [Example 201, N-(1-cyclopropyl-1H-pyrazol-4-yl)-9-methoxy-3H-pyrazolo[3,4-c]quinolin-4-amine]
IC50 (SYK kinase): 100 to 1000 nM | IC50 (LRRK2): < 10 nM

SMILES: COCC(C)(C)n1cc(Nc2nc3cccc(OC)c3c3cn[nH]c23)cn1 [Example 204, 9-methoxy-N-(1-(1-methoxy-2-methylpropan-2-yl)-1H-pyrazol-4-yl)-3H-pyrazolo[3,4-c]quinolin-4-amine]
IC50 (SYK kinase): 100 to 1000 nM | IC50 (LRRK2): < 10 nM

SMILES: COc1cccc2nc(Nc3cnn(C4CCN(C(C)(C)C)CC4)c3)c3[nH]ncc3c12 [Example 206, N-(1-(1-(tert-butyl)piperidin-4-yl)-1H-pyrazol-4-yl)-9-methoxy-3H-pyrazolo[3,4-c]quinolin-4-amine]
IC50 (SYK kinase): 10 to 100 nM | IC50 (LRRK2): < 10 nM

SMILES: COCC(C)(C)n1cc(Nc2nc3ccc(S(C)(=O)=O)cc3c3cn[nH]c23)cn1 [Example 208, N-(1-(1-methoxy-2-methylpropan-2-yl)-1H-pyrazol-4-yl)-8-(methylsulfonyl)-3H-pyrazolo[3,4-c]quinolin-4-amine]
IC50 (SYK kinase): 10 to 100 nM | IC50 (LRRK2): < 10 nM

SMILES: COc1nn(C(C)C)cc1Nc1nc2cccc(OC)c2c2cn[nH]c12 [Example 224, N-(1-isopropyl-3-methoxy-1H-pyrazol-4-yl)-9-methoxy-3H-pyrazolo[3,4-c]quinolin-4-amine]
IC50 (SYK kinase): 100 to 1000 nM | IC50 (LRRK2): < 10 nM

Other lines, results leading:

IC50 (SYK kinase): 10 to 100 nM | IC50 (LRRK2): < 10 nM
SMILES: CS(=O)(=O)c1ccc2nc(Nc3cnn(C4(C#N)CCCCC4)c3)c3[nH]ncc3c2c1 [Example 179, 1-(4-((8-(methylsulfonyl)-3H-pyrazolo[3,4-c]quinolin-4-yl)amino)-1H-pyrazol-1-yl)cyclohexanecarbonitrile]

IC50 (SYK kinase): < 10 nM | IC50 (LRRK2): < 10 nM
SMILES: CC(C)n1cc(Nc2nc3ccc(S(C)(=O)=O)cc3c3cn[nH]c23)cn1 [Example 180, N-(1-isopropyl-1H-pyrazol-4-yl)-8-(methylsulfonyl)-3H-pyrazolo[3,4-c]quinolin-4-amine]

IC50 (SYK kinase): 10 to 100 nM | IC50 (LRRK2): < 10 nM
SMILES: COc1cccc2nc(Nc3cnn(C(C)C)c3)c3[nH]ncc3c12 [Example 182, N-(1-isopropyl-1H-pyrazol-4-yl)-9-methoxy-3H-pyrazolo[3,4-c]quinolin-4-amine]

IC50 (SYK kinase): 10 to 100 nM | IC50 (LRRK2): < 10 nM
SMILES: COc1cccc2nc(Nc3cnn(C(C)(C)C#N)c3)c3[nH]ncc3c12 [Example 184, 2-(4-((9-methoxy-3H-pyrazolo[3,4-c]quinolin-4-yl)amino)-1H-pyrazol-1-yl)-2-methylpropanenitrile]

IC50 (SYK kinase): 10 to 100 nM | IC50 (LRRK2): < 10 nM
SMILES: CS(=O)(=O)c1ccc2nc(Nc3cnn(CCO)c3)c3[nH]ncc3c2c1 [Example 186, 2-(4-((8-(methylsulfonyl)-3H-pyrazolo[3,4-c]quinolin-4-yl)amino)-1H-pyrazol-1-yl)ethan-1-ol]

IC50 (SYK kinase): 10 to 100 nM | IC50 (LRRK2): < 10 nM
SMILES: CC(C)Cn1cc(Nc2nc3ccc(S(C)(=O)=O)cc3c3cn[nH]c23)cn1 [Example 187, N-(1-isobutyl-1H-pyrazol-4-yl)-8-(methylsulfonyl)-3H-pyrazolo[3,4-c]quinolin-4-amine]

IC50 (SYK kinase): 10 to 100 nM | IC50 (LRRK2): 10 to 100 nM
SMILES: CC(C)n1cc(Nc2nc3cc(S(C)(=O)=O)ccc3c3cn[nH]c23)cn1 [Example 189, N-(1-isopropyl-1H-pyrazol-4-yl)-7-(methylsulfonyl)-3H-pyrazolo[3,4-c]quinolin-4-amine]

IC50 (SYK kinase): < 10 nM | IC50 (LRRK2): < 10 nM
SMILES: CS(=O)(=O)c1ccc2nc(Nc3cnn(C4CC4)c3)c3[nH]ncc3c2c1 [Example 203, N-(1-cyclopropyl-1H-pyrazol-4-yl)-8-(methylsulfonyl)-3H-pyrazolo[3,4-c]quinolin-4-amine]

IC50 (SYK kinase): < 10 nM | IC50 (LRRK2): < 10 nM
SMILES: CC(C)(C)N1CCC(n2cc(Nc3nc4ccc(S(C)(=O)=O)cc4c4cn[nH]c34)cn2)CC1 [Example 211, N-(1-(1-(tert-butyl)piperidin-4-yl)-1H-pyrazol-4-yl)-8-(methylsulfonyl)-3H-pyrazolo[3,4-c]quinolin-4-amine]

IC50 (SYK kinase): < 10 nM | IC50 (LRRK2): < 10 nM
SMILES: CS(=O)(=O)c1ccc2nc(Nc3cnn(CCF)c3)c3[nH]ncc3c2c1 [Example 221, N-(1-(2-fluoroethyl)-1H-pyrazol-4-yl)-8-(methylsulfonyl)-3H-pyrazolo[3,4-c]quinolin-4-amine]
